The record followed here is US20080207708A1, “Oxazole and Thiazole Compounds and Their Use in the Treatment of Pge2 Mediated Disorders” (GLAXO GROUP LIMITED, priority 2005, published 2008).

Assay [1] addresses T1, EP1 receptors (Homo sapiens, UniProt P34995).
T1 sequence (P34995 1-402): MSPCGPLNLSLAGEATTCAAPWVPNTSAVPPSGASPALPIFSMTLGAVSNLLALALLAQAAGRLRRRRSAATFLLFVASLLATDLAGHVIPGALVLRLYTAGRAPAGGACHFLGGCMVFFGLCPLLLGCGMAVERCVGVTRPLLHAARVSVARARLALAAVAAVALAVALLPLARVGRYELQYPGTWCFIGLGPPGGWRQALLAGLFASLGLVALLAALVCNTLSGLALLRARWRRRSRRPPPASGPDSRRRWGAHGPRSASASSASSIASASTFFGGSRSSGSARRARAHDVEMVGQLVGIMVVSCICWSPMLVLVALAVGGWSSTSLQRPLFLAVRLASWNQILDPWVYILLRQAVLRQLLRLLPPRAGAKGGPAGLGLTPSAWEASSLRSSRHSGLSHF
The experiment in a line: human EP1 calcium mobilisation assay (CHO-K1 cells, FLIPR, PGE2). In kind it is cell-based. Conditions: free bases or sodium salts; averages of a number of experiments; read-out: functional pKi value, human EP1 calcium mobilisation assay (converted). The arrangement: expressed in transfected cells; host or cells: CHO-K1 cells, pCIN vector. The procedure:
Briefly, the antagonist properties of compounds are assessed by their ability to inhibit the mobilisation of intracellular calcium ([Ca^2+]i) in response to activation of EP1 or EP3 receptors by the natural agonist hormone prostaglandin E2 (PGE2). Increasing concentrations of antagonist reduce the amount of calcium that a given concentration of PGE2 can mobilise. The net effect is to displace the PGE2 concentration-effect curve to higher concentrations of PGE2. The amount of calcium produced is assessed using a calcium-sensitive fluorescent dye such as Fluo-4, AM and a suitable instrument such as a Fluorimetric Imaging Plate Reader (FLIPR). Increasing amounts of [Ca^2+]i produced by receptor activation increase the amount of fluorescence produced by the dye and give rise to an increasing signal. The signal may be detected using the FLIPR instrument and the data generated may be analysed with suitable curve-fitting software.
The human EP1 or EP3 calcium mobilisation assay (hereafter referred to as ‘the calcium assay’) utilises Chinese hamster ovary-K1 (CHO-K1) cells into which a stable (pCIN; BioTechniques 20 (1996): 102-110) vector containing either EP1 or EP3 cDNA has previously been transfected. Cells are cultured in suitable flasks containing culture medium such as DMEM:F-12 supplemented with 10% v/v foetal calf serum, 2 mM L-glutamine, 0.25 mg/ml geneticin, 100 μM flurbiprofen and 10 µg/ml puromycin. For assay, cells are harvested using a proprietary reagent that dislodges cells such as Versene. Cells are re-suspended in a suitable quantity of fresh culture media for introduction into a 384-well plate. Following incubation for 24 hours at 37° C. the culture media is replaced with a medium containing Fluo-4 and the detergent pluronic acid, and a further incubation takes place. Concentrations of compounds are then added to the plate in order to construct concentration-effect curves. This may be performed on the FLIPR in order to assess the agonist properties of the compounds. Concentrations of PGE2 are then added to the plate in order to assess the antagonist properties of the compounds. The data so generated may be analysed by means of a computerised curve-fitting routine. The concentration of compound that elicits a half-maximal inhibition of the calcium mobilisation induced by PGE2 (pIC50) may then be estimated.
For orientation: Calcium flux is commonly read through the fluorescence of an indicator in the cells.

The target in assay [2] is T1, EP1 receptors. The experiment in a line: Binding assay for the human prostanoid EP1 receptor (competition with [3H]-PGE2). Particulars: [3H]-PGE2 competition; averages of a number of experiments; read-out: pIC50 value, binding assay for the human prostanoid EP1 receptor (converted). The arrangement: expressed in transfected cells; host or cells: CHO-K1 cells, membrane fraction. The method, boiled down:
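Membranes from CHO-K1 cells stably expressing human EP1 incubated with compounds and [3H]-PGE2 (3 nM final) for 30 min at 30° C in MES buffer with EDTA and MgCl2, pH 6. Bound radioactivity measured after filtration; IC50 from nonlinear fit of specific binding inhibition.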

Structures are written as SMILES.

Turning to `O=C(NCc1ccccc1)c1csc(Cc2cc(Cl)ccc2OCc2ccccc2)n1` [Example 92, 2-({5-Chloro-2-[(phenylmethyl)oxy]phenyl}methyl)-N-(phenylmethyl)-1,3-thiazole-4-carboxamide], the Ki at EP1 receptors [1] is above 1 µM. The IC50 on EP1 receptors [2] was at most 1 µM.
Taken in the same sequence, the figures for `CC(C)CNC(=O)c1csc(Cc2cc(Cl)ccc2OCc2ccccc2)n1` [Example 93, 2-({5-Chloro-2-[(phenylmethyl)oxy]phenyl}methyl)-N-(2-methylpropyl)-1,3-thiazole-4-carboxamide] were above 1 µM and at most 1 µM.
The corresponding values for `O=C(NCc1ccccn1)c1csc(Cc2cc(Cl)ccc2OCc2ccccc2)n1` [Example 94, 2-({5-Chloro-2-[(phenylmethyl)oxy]phenyl}methyl)-N-(2-pyridinylmethyl)-1,3-thiazole-4-carboxamide] are below 1 µM and at most 1 µM.
The corresponding values for `O=C(NCc1cccnc1)c1csc(Cc2cc(Cl)ccc2OCc2ccccc2)n1` [Example 95, 2-({5-Chloro-2-[(phenylmethyl)oxy]phenyl}methyl)-N-(3-pyridinylmethyl)-1,3-thiazole-4-carboxamide] are below 1 µM and at most 1 µM.
As for `O=C(NCc1ccncc1)c1csc(Cc2cc(Cl)ccc2OCc2ccccc2)n1` [Example 96, 2-({5-Chloro-2-[(phenylmethyl)oxy]phenyl}methyl)-N-(4-pyridinylmethyl)-1,3-thiazole-4-carboxamide], the Ki on EP1 receptors [1] is below 1 µM. The IC50 at EP1 receptors [2] is at most 1 µM.
The corresponding values for `CNC(=O)c1csc(Cc2cc(Cl)ccc2OCc2ccccc2)n1` [Example 97, 2-({5-Chloro-2-[(phenylmethyl)oxy]phenyl}methyl)-N-methyl-1,3-thiazole-4-carboxamide] are above 1 µM and at most 1 µM.
For the compound `O=C(Nc1nnn[nH]1)c1csc(Cc2cc(Cl)ccc2OCc2ccccc2)n1` [Example 98, 2-({5-Chloro-2-[(phenylmethyl)oxy]phenyl}methyl)-N-1H-tetrazol-5-yl-1,3-thiazole-4-carboxamide], at EP1 receptors [1], the Ki was at most 0.0316 µM. In addition, the IC50 at EP1 receptors [2] is at most 1 µM.
The corresponding values for `O=C(Nc1ccccn1)c1csc(Cc2cc(Cl)ccc2OCc2ccccc2)n1` [Example 99, 2-({5-Chloro-2-[(phenylmethyl)oxy]phenyl}methyl)-N-2-pyridinyl-1,3-thiazole-4-carboxamide] are above 1 µM and at most 1 µM.
Regarding `O=C(NS(=O)(=O)c1ccccc1)c1csc(Cc2cc(Cl)ccc2OCc2ccc(F)cc2)n1` [Example 101, 2-[(5-Chloro-2-{[(4-fluorophenyl)methyl]-oxy}phenyl)methyl]-N-(phenylsulfonyl)-1,3-thiazole-4-carboxamide], the Ki at EP1 receptors [1] was below 1 µM. Further, on EP1 receptors [2], the IC50 is at most 0.0316 µM.
Taken in the same sequence, the figures for `O=C(NS(=O)(=O)c1ccccc1)c1csc(Cc2cc(Cl)ccc2OCc2ccc(F)cc2F)n1` [Example 102, 2-[(5-Chloro-2-{[(2,4-difluorophenyl)methyl]oxy}phenyl)methyl]-N-(phenylsulfonyl)-1,3-thiazole-4-carboxamide] were below 1 µM and at most 0.0316 µM.
For the compound `O=C(NS(=O)(=O)c1ccccc1)c1csc(Cc2cc(Cl)ccc2OCc2ccccc2F)n1` [Example 103, 2-[(5-Chloro-2-{[(2-fluorophenyl)methyl]-oxy}phenyl)methyl]-N-(phenylsulfonyl)-1,3-thiazole-4-carboxamide], at EP1 receptors [1], the Ki was below 1 µM. Besides, at EP1 receptors [2], the IC50 was at most 0.0316 µM.
Taken in the same sequence, the figures for `O=C(NS(=O)(=O)c1ccccc1)c1csc(Cc2cc(Cl)ccc2OCc2ccccc2Cl)n1` [Example 104, 2-[(5-Chloro-2-{[(2-chlorophenyl)methyl]-oxy}phenyl)methyl]-N-(phenylsulfonyl)-1,3-thiazole-4-carboxamide] were below 1 µM and at most 0.0316 µM.
